Laboratory results from US20260216176A1, “USE OF PCLX-001 OR PCLX-002 AS A RADIOSENSITIZER” (ACYLEX PHARMACEUTICALS INC., priority 2023, published 2026).
Where two headings read alike, the source gives them in different places.

Assay: Plasma pharmacokinetics in phase I clinical trial NCT04836195 (oral daily dose)
Assay type: in vivo, human
Conditions: for AUC(0-t) / Cmax / Tmax / half-life: human, plasma; for AUC(0-t): read-out: AUC0-24 (mean, SD); for Cmax: read-out: Cmax (mean, SD)
Procedure: A phase I, multicenter, nonrandomized, open-label study of zelenirstat, entitled “Phase I Trial of PCLX-001 in B-cell Non-Hodgkin Lymphoma and Advanced Solid Malignancies” (reference 6), is being conducted and is registered at clinicaltrials.gov as NCT04836195. In this study, PCLX-001 was administered as an oral daily dose every morning to patients with advanced cancer, on 28-day cycles, until toxicity or progressive disease. Peripheral blood samples were collected over six time points in the first 8 hours of cycle 1 day 1, and again on cycle 1 day 15, with pretreatment day 1 levels obtained with every subsequent cycle. PCLX-001/zelenirstat plasma concentrations were quantified using a validated ultra-performance liquid chromatography with tandem mass spectrometry detection and analyzed using a nonlinear mixed-effects model.

[1] = oral, 20 mg, 20 mg, Cycle 1 D15
[2] = oral, 40 mg, 40 mg, Cycle 1 D15
[3] = oral, 70 mg, 70 mg, Cycle 1 D15
[4] = oral, 100 mg, 100 mg, Cycle 1 D1
[5] = oral, 100 mg, 100 mg, Cycle 1 D15
[6] = oral, 140 mg, 140 mg, Cycle 1 D1
[7] = oral, 140 mg, 140 mg, Cycle 1 D15
[8] = oral, 210 mg, 210 mg, Cycle 1 D1
[9] = oral, 210 mg, 210 mg, Cycle 1 D15

For `Cc1c(N[S+](=O)(O)c2c(Cl)cc(-c3ccnc(N4CCNCC4)c3)cc2Cl)c(CC(C)C)nn1C` [PCLX-001], the AUC(0-t) (oral, 20 mg, 20 mg, Cycle 1 D1) was 1580 ng·h/mL, the Cmax (oral, 20 mg, 20 mg, Cycle 1 D1) was 276 ng/mL and the Tmax (oral, 20 mg, 20 mg, Cycle 1 D1, read-out: Tmax (median, range)) was 2 h. For the same molecule, the half-life (oral, 20 mg, 20 mg, Cycle 1 D1, read-out: t½ (mean, SD) (converted)) was 6.7 h, the AUC(0-t) [1] was 2070 ng·h/mL and the Cmax [1] was 359 ng/mL. It also gave a Tmax (oral, 20 mg, 20 mg, Cycle 1 D15, read-out: Tmax (median, range)) of 1 h, a half-life (oral, 20 mg, 20 mg, Cycle 1 D15, read-out: t½ (mean, SD) (converted)) of 7.4 h and an AUC(0-t) (oral, 40 mg, 40 mg, Cycle 1 D1) of 4820 ng·h/mL. The Cmax (oral, 40 mg, 40 mg, Cycle 1 D1) was 848 ng/mL, the Tmax (oral, 40 mg, 40 mg, Cycle 1 D1, read-out: Tmax (median, range)) was 0.9 h and the half-life (oral, 40 mg, 40 mg, Cycle 1 D1, read-out: t½ (mean, SD) (converted)) was 9.2 h. It also gave an AUC(0-t) [2] of 7060 ng·h/mL, a Cmax [2] of 774 ng/mL and a Tmax (oral, 40 mg, 40 mg, Cycle 1 D15, read-out: Tmax (median, range)) of 2.2 h. It also gave a half-life (oral, 40 mg, 40 mg, Cycle 1 D15, read-out: t½ (mean, SD) (converted)) of 9.7 h, an AUC(0-t) (oral, 70 mg, 70 mg, Cycle 1 D1) of 5650 ng·h/mL and a Cmax (oral, 70 mg, 70 mg, Cycle 1 D1) of 665 ng/mL. For the same molecule, the Tmax (oral, 70 mg, 70 mg, Cycle 1 D1, read-out: Tmax (median, range)) was 3.9 h, the half-life (oral, 70 mg, 70 mg, Cycle 1 D1, read-out: t½ (mean, SD) (converted)) was 9.5 h and the AUC(0-t) [3] was 6610 ng·h/mL. It also gave a Cmax [3] of 467 ng/mL, a Tmax (oral, 70 mg, 70 mg, Cycle 1 D15, read-out: Tmax (median, range)) of 4.1 h and an AUC(0-t) [4] of 18900 ng·h/mL. For the same molecule, the Cmax [4] was 2190 ng/mL, the Tmax (oral, 100 mg, 100 mg, Cycle 1 D1, read-out: Tmax (median, range)) was 2 h and the half-life (oral, 100 mg, 100 mg, Cycle 1 D1, read-out: t½ (mean, SD) (converted)) was 8 h. It also gave an AUC(0-t) [5] of 24700 ng·h/mL, a Cmax [5] of 2300 ng/mL and a Tmax (oral, 100 mg, 100 mg, Cycle 1 D15, read-out: Tmax (median, range)) of 4 h. It also gave a half-life (oral, 100 mg, 100 mg, Cycle 1 D15, read-out: t½ (mean, SD) (converted)) of 12 h, an AUC(0-t) [6] of 11900 ng·h/mL and a Cmax [6] of 1770 ng/mL. It also gave a Tmax (oral, 140 mg, 140 mg, Cycle 1 D1, read-out: Tmax (median, range)) of 1 h, a half-life (oral, 140 mg, 140 mg, Cycle 1 D1, read-out: t½ (mean, SD) (converted)) of 7.2 h and an AUC(0-t) [7] of 8150 ng·h/mL. The Cmax [7] was 1340 ng/mL, the Tmax (oral, 140 mg, 140 mg, Cycle 1 D15, read-out: Tmax (median, range)) was 2 h and the half-life (oral, 140 mg, 140 mg, Cycle 1 D15, read-out: t½ (mean, SD) (converted)) was 10.4 h. It also gave an AUC(0-t) [8] of 14700 ng·h/mL, a Cmax [8] of 1770 ng/mL and a Tmax (oral, 210 mg, 210 mg, Cycle 1 D1, read-out: Tmax (median, range)) of 3 h. It also gave a half-life (oral, 210 mg, 210 mg, Cycle 1 D1, read-out: t½ (mean, SD) (converted)) of 7.8 h, an AUC(0-t) [9] of 27600 ng·h/mL and a Cmax [9] of 2940 ng/mL. The Tmax (oral, 210 mg, 210 mg, Cycle 1 D15, read-out: Tmax (median, range)) was 2 h, the half-life (oral, 210 mg, 210 mg, Cycle 1 D15, read-out: t½ (mean, SD) (converted)) was 7.7 h and the Tmax (oral, patients taking proton pump inhibitors (PPI), read-out: maximum Tmax value observed) was ~8 h. It also gave a Tmax (oral, patients taking proton pump inhibitors (PPI), read-out: median Tmax range) of 1 to 6 h, a half-life (oral, C1D1, read-out: mean terminal half-life across the dose cohorts) of 6.7 to 9.5 h and a Tmax (po, single oral 20 mg to 210 mg, C1D1, read-out: median Tmax values across the dose cohorts) of 1 to 4 h. For the same molecule, the “accumulation following repeated administration” value (majority of patients, 14 days) was < 2 fold and the “accumulation beyond Day 15” value (pre-dose concentrations over multiple cycles) was “no accumulation was apparent”.
